Assay [1] can be described thus: Binding of 5(6)-FAM-conjugated modular peptides to HA-coated PLG films. The note with it: 4 hr, 37° C. How it is done:
Poly (lactide-coglycolide) (PLG) films were prepared via a solvent casting process in which PLG (85:15) pellets were dissolved in chloroform (50 mg/ml), added to a PTFE dish, and dried for 2 days. The films were further dried at 50-55° C. for 4 hr to remove residual solvent and samples were cooled to room temperature. Square films (1 cm^2) were manually cut out of the resulting PLG film sheets. A “bone-like” HA-based material layer was grown on the PLG films using a direct deposition technique by biomimetic mineralization in modified simulated body fluid (mSBF).
To measure the binding efficiency of modular peptides to the HA-coated PLG films and to gain preliminary insight into the properties that influence modular peptide immobilization, 1 cm^2 HA-coated PLG films was first exposed to PBS solutions containing 500 μg (1 mg/ml) of 5(6) FAM-conjugated eBMP-2, eBGu1, eBGu3, eBGa1, or eBGa3 modular peptide solution (See Table 1 for definitions of these abbreviations). The films were incubated in peptide solutions with constant agitation for 4 hr at 37° C., and the amount of free peptide remaining was determined by measuring the fluorescence emission of the solution (excitation: 494 nm; emission 519 nm) using a Synergy HT Multi-Detection Microplate Reader (BioTek, Winooski, Vt.), and comparing this emission to standard samples with known concentrations of 5(6)-FAM. To further characterize surface immobilization of the peptide with the highest binding efficiency—the eBGa3 peptide-1 cm^2 HA-coated films were incubated in various concentrations (50-750 nM) of 5(6)-FAM-conjugated eBGa3 peptide for 4 hr with constant agitation at 37° C. The amount of peptide bound to HA-coated film was again determined by fluorescence analysis, as described above.

Assay [2] in a line: Binding of rhodamine-labeled peptide to cortical bone. Details: species or system sheep. How it is done: The native bone used were harvested from sheep tibia and bovine sternum. Cortical (compact) bone slices were collected from sheep tibia with periosteum removed, and trabecular (cancellous, spongy) bone cores were drilled out from bovine sternum under sterile conditions.
The peptide binding to native bones was tested in three different experiments. In the first experiment, the cortical bone slices were incubated in modular peptide solution (0.5 mL, PBS) with concentrations of 50, 100, 200 and 300 μg/mL. The incubation was continued in a static condition for a period of 0.5, 1, 2 and 3 hours. For another experiment, the trabecular bone cores were placed in the chamber of bone bioreactor where the peptide solution prepared in DMEM (100 μg/mL, 6.5 mL) was continuously circulated through the chamber for a time period of 2, 4, 6, 8 and 10 hours. In the last experiment, mBMP was bound in a spatially controlled manner by dip-coating, spotting or writing with mBMP solution on native bone tissues. Following each experiment, the bones were rinsed with PBS to remove unbound peptide and their fluorescence images were captured using a Typhoon fluorescence scanner (GE healthcare) or a Nikon Eclipse Ti inverted microscope. To quantify the fluorescence intensity, the images were converted into 8-bit using ImageJ to present the intensity level of each pixel in the range of 0 to 255. The mean pixel intensity of a selected region of interest was considered to be proportional to the amount of peptide bound.
To examine mBMP binding to cortical bone without periosteum (ca. 4 mm×7 mm×1.5 mm) from the shaft of sheep tibia, the bone tissue was incubated in mBMP solution prepared in phosphate buffered saline (PBS). The binding of mBMP was concentration-dependent for each incubation time tested (FIGS. 12 and 13A). The quantity of mBMP binding was proportional to the solution concentration, which was clearly observed through all concentrations at 0.5 hour. However, this dependence was not apparent at higher concentrations at later time points. […] The insignificant dependence on the incubation time is likely attributed to the rapid binding of mBMP to native bone tissue.

This is an account of results in US20140235542A1, “MODULAR, BIOACTIVE PEPTIDES FOR BINDING NATIVE BONE AND IMPROVING BONE GRAFT OSTEOINDUCTIVITY” (WISCONSIN ALUMNI RESEARCH FOUNDATION, priority 2013, published 2014).

Square brackets hold non-standard residues; d marks the D form. Ends that are not written are not given here. Gla = N[C@@H](CC(C(=O)O)C(=O)O)C(=O)O

Turning to “KIPKASSVPTELSAISTLYLAAAAγEPRRγEVAγEL (KIPKASSVPTELSAISTLYLAAAA[Gla]PRR[Gla]VA[Gla]L-NH2; N-terminus assumed; SMILES CC[C@H](C)[C@H](NC(=O)[C@H](C)NC(=O)[C@H](CO)NC(=O)[C@H](CC(C)C)NC(=O)[C@H](CCC(=O)O)NC(=O)[C@@H](NC(=O)[C@@H]1CCCN1C(=O)[C@@H](NC(=O)[C@H](CO)NC(=O)[C@H](CO)NC(=O)[C@H](C)NC(=O)[C@H](CCCCN)NC(=O)[C@@H]1CCCN1C(=O)[C@@H](NC(=O)[C@@H](N)CCCCN)[C@@H](C)CC)C(C)C)[C@@H](C)O)C(=O)N[C@@H](CO)C(=O)N[C@H](C(=O)N[C@@H](CC(C)C)C(=O)N[C@@H](Cc1ccc(O)cc1)C(=O)N[C@@H](CC(C)C)C(=O)N[C@@H](C)C(=O)N[C@@H](C)C(=O)N[C@@H](C)C(=O)N[C@@H](C)C(=O)N[C@@H](CC(C(=O)O)C(=O)O)C(=O)N1CCC[C@H]1C(=O)N[C@@H](CCCNC(=N)N)C(=O)N[C@@H](CCCNC(=N)N)C(=O)N[C@@H](CC(C(=O)O)C(=O)O)C(=O)N[C@H](C(=O)N[C@@H](C)C(=O)N[C@@H](CC(C(=O)O)C(=O)O)C(=O)N[C@@H](CC(C)C)C(N)=O)C(C)C)[C@@H](C)O) [eBGa3]”, the “binding efficiency on the HA-coated PLG films” value in assay [1] (500 μg (1 mg/ml) 5(6)-FAM-conjugated peptide in PBS, constant agitation) is recorded as 55.9±2.2%. In assay [1] (HA-coated film), the “peptide amount at which bound amount reached saturation” value is ~300 µg and the “peptide concentration at which bound amount reached saturation” value is listed as “approximately 150 μM”. Besides, the “dependence of binding to cortical bone on concentration and incubation time” value in assay [2] (50-300 μg/mL in PBS, 0.5-3 hours) was “concentration-dependent”. In addition, in assay [2] (bone piece dip-coated in peptide solution), the “binding to bone surface after dip-coating” value was “significant amount of mBMP was found to bind”. Further, in assay [2] (rhodamine-labeled peptide, cortical bone), the “fluorescence intensity of treated bone compared with rhodamine-treated group” value is on record as “higher fluorescence intensity”.
